The values that follow come from US20110053910A1, “2 -HETEROCYCLYLOXYBENZOYL AMINO HETEROCYCLYL COMPOUNDS AS MODULATORS OF GLUCOKINASE FOR THE TREATMENT OF TYPE 2 DIABETES” (priority 2005, published 2011).

Test [1] has as its system Zucker obese fa/fa rats. Briefly: Oral Glucose Tolerance Test (OGTT). Type of test: in vivo, rat. The following applies: 10 mg/kg, given orally 120 minutes before glucose 2 g/kg; Zucker obese fa/fa rats on high fat diet; vehicle-control AUC = zero percent. Here is the method:
Oral glucose tolerance tests were done on conscious Zucker obese fa/fa rats (age 12-13 weeks or older) fed a high fat diet (45% kcal fat) for at least two weeks prior to experimentation. The animals were fasted for 2 hours before use for experiments. A test compound or a vehicle was given orally 120 minutes before oral administration of a glucose solution at a dose of 2 g/kg body weight. Blood glucose levels were measured using a Accucheck glucometer from tail bled samples taken at different time points before and after administration of glucose (time course of […]). A time curve of the blood glucose levels was generated and the area-under-the-curve (AUC) for 120 minutes was calculated (the time of glucose administration being time zero). Percent reduction in glucose excursion was determined using the AUC in the vehicle-control group as zero percent reduction.

In test [2] the target is T1, recombinant human pancreatic GLK (Homo sapiens, UniProt P35557).
T1 sequence (P35557 1-465): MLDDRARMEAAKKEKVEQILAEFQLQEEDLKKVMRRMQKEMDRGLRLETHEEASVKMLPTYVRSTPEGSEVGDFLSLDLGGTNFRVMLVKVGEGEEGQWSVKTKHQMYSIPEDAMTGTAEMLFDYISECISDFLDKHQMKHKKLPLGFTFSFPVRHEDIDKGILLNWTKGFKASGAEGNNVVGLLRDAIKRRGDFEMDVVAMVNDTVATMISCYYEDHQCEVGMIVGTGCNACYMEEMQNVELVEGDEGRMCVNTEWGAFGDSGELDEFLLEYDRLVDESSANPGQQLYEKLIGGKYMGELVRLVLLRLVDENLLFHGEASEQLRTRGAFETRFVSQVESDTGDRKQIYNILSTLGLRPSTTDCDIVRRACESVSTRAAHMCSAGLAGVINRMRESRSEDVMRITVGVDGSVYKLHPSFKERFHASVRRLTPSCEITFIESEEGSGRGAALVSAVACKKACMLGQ
The test can be described thus: biochemical.

For `C[C@@H](CO)Oc1cc(Oc2nc3ccccc3s2)cc(C(=O)Nc2ccn(C)n2)c1` [Example 1, 3-(1,3-Benzothiazol-2-yloxy)-5-{[(1S)-2-hydroxy-1-methylethyl]oxy}-N-(1-methyl-1H-pyrazol-3-yl)benzamide], the “activity in OGTT (percent reduction in glucose excursion, AUC)” value in test [1] is given as 50%. Further, in test [2], the EC50 is 88 nM.

By EC50 is commonly meant the midpoint of the concentration-response curve.
